Assay results from ChEMBL document CHEMBL4308841, “Synthesis, in vitro antiproliferative activity, and kinase inhibitory effects of pyrazole-containing diarylureas and diarylamides” (Eur J Med Chem, 2018).

Assays:
SF-268 = experiment: Growth inhibition of human SF268 cells assessed as cell growth at 100 uM incubated for 48 hrs by sulforhodamine B assay relative to control; type: functional; conditions: SF-268, 48 h, read-out: Activity
CAKI-1 = experiment: Growth inhibition of human Caki1 cells assessed as cell growth at 1 uM incubated for 48 hrs by sulforhodamine B assay relative to control; type: functional; conditions: CAKI-1, 48 h, read-out: Activity
PC-3 [1] = experiment: Growth inhibition of human PC3 cells assessed as cell growth at 100 uM incubated for 48 hrs by sulforhodamine B assay relative to control; type: functional; conditions: PC-3, 48 h, read-out: Activity
DU-145 [2] = experiment: Growth inhibition of human DU145 cells assessed as cell growth at 1 uM incubated for 48 hrs by sulforhodamine B assay relative to control; type: functional; conditions: DU-145, 48 h, read-out: Activity
SK-MEL-2 = experiment: Growth inhibition of human SK-MEL-2 cells incubated for 48 hrs by sulforhodamine B assay; type: functional, cell-based; conditions: SK-MEL-2, 48 h
RPMI-8226 = experiment: Growth inhibition of human RPMI8226 cells assessed as cell growth at 0.1 uM incubated for 48 hrs by sulforhodamine B assay relative to control; type: functional; conditions: RPMI-8226, 48 h, read-out: Activity
NCI/ADR-RES = experiment: Growth inhibition of human NCI/ADR-RES cells assessed as cell growth at 1 uM incubated for 48 hrs by sulforhodamine B assay relative to control; type: functional; conditions: read-out: Activity
Hs-578T [3] = experiment: Growth inhibition of human Hs578T cells assessed as cell growth at 100 uM incubated for 48 hrs by sulforhodamine B assay relative to control; type: functional; conditions: read-out: Activity
A549 [4] = experiment: Growth inhibition of human A549/ATCC cells assessed as cell growth at 100 uM incubated for 48 hrs by sulforhodamine B assay relative to control; type: functional; conditions: A549, 48 h, read-out: Activity
Malme-3M = experiment: Growth inhibition of human MALME-3M cells assessed as cell growth at 0.1 uM incubated for 48 hrs by sulforhodamine B assay relative to control; type: functional; conditions: read-out: Activity
UO-31 = experiment: Growth inhibition of human UO31 cells assessed as cell growth at 100 uM incubated for 48 hrs by sulforhodamine B assay relative to control; type: functional; conditions: UO-31, 48 h, read-out: Activity
Hs-578T [5] = experiment: Growth inhibition of human Hs578T cells incubated for 48 hrs by sulforhodamine B assay; type: functional, cell-based
SF-295 = experiment: Growth inhibition of human SF295 cells assessed as cell growth at 100 uM incubated for 48 hrs by sulforhodamine B assay relative to control; type: functional; conditions: SF-295, 48 h, read-out: Activity
A549 [6] = experiment: Growth inhibition of human A549/ATCC cells incubated for 48 hrs by sulforhodamine B assay; type: functional, cell-based; conditions: A549, 48 h
DU-145 [7] = experiment: Growth inhibition of human DU145 cells incubated for 48 hrs by sulforhodamine B assay; type: functional, cell-based; conditions: DU-145, 48 h
MDA-MB-231 = experiment: Growth inhibition of human MDA-MB-231 cells assessed as cell growth at 100 uM incubated for 48 hrs by sulforhodamine B assay relative to control; type: functional; conditions: MDA-MB-231, 48 h, read-out: Activity
HCC 2998 = experiment: Growth inhibition of human HCC2998 cells incubated for 48 hrs by sulforhodamine B assay; type: functional, cell-based; conditions: HCC 2998, 48 h
PC-3 [8] = experiment: Growth inhibition of human PC3 cells incubated for 48 hrs by sulforhodamine B assay; type: functional, cell-based; conditions: PC-3, 48 h
MOLT-4 = experiment: Growth inhibition of human MOLT4 cells incubated for 48 hrs by sulforhodamine B assay; type: functional, cell-based; conditions: MOLT-4, 48 h
ACHN = experiment: Growth inhibition of human ACHN cells assessed as cell growth at 100 uM incubated for 48 hrs by sulforhodamine B assay relative to control; type: functional; conditions: read-out: Activity
OVCAR-4 = experiment: Growth inhibition of human OVCAR4 cells assessed as cell growth at 100 uM incubated for 48 hrs by sulforhodamine B assay relative to control; type: functional; conditions: OVCAR-4, 48 h, read-out: Activity
NCI-H522 = experiment: Growth inhibition of human NCI-H522 cells assessed as cell growth at 0.01 uM incubated for 48 hrs by sulforhodamine B assay relative to control; type: functional; conditions: NCI-H522, 48 h, read-out: Activity
OVCAR-3 = experiment: Growth inhibition of human OVCAR3 cells assessed as cell growth at 0.1 uM incubated for 48 hrs by sulforhodamine B assay relative to control; type: functional; conditions: OVCAR-3, 48 h, read-out: Activity
RXF 393 = experiment: Growth inhibition of human RXF393 cells assessed as cell growth at 1 uM incubated for 48 hrs by sulforhodamine B assay relative to control; type: functional; conditions: RXF 393, 48 h, read-out: Activity
SW-620 = experiment: Growth inhibition of human SW620 cells assessed as cell growth at 100 uM incubated for 48 hrs by sulforhodamine B assay relative to control; type: functional; conditions: SW-620, 48 h, read-out: Activity
MCF7 = experiment: Growth inhibition of human MCF7 cells assessed as cell growth at 1 uM incubated for 48 hrs by sulforhodamine B assay relative to control; type: functional; conditions: MCF7, 48 h, read-out: Activity
[9] = read-out: LC50 (the source's name)
[10] = read-out: pLC50 (the source's name) (converted)

O=C(Nc1cccc(-n2cc(-c3ccncc3)c(-c3cc(O)cc(Cl)c3)n2)c1)c1cc(C(F)(F)F)cc(C(F)(F)F)c1
growth at 100 µM (SF-268): 31% | growth at 1 µM (CAKI-1): 90% | growth at 100 µM (PC-3 [1]): -8% | growth at 1 µM (DU-145 [2]): 93% | GI50 (SK-MEL-2; read-out: GI50): 3.28 µM | CC50 (SK-MEL-2; [9]): > 100 µM | TGI (SK-MEL-2; read-out: TGI): 95.1 µM | GI50 (SK-MEL-2; read-out: pGI50 (converted)): 3.31 µM | CC50 (SK-MEL-2; [10]): > 100 µM | TGI (SK-MEL-2; read-out: pTGI (converted)): 9.55 µM | growth at 0.1 µM (RPMI-8226): 105% | growth at 1 µM (NCI/ADR-RES): 94% | growth at 100 µM (Hs-578T [3]): 34% | growth at 100 µM (A549 [4]): 4% | growth at 0.1 µM (Malme-3M): 52% | growth at 100 µM (UO-31): 13% | GI50 (Hs-578T [5]; read-out: GI50): 6.38 µM | CC50 (Hs-578T [5]; [9]): > 100 µM | TGI (Hs-578T [5]; read-out: TGI): > 100 µM | GI50 (Hs-578T [5]; read-out: pGI50 (converted)): 6.31 µM | CC50 (Hs-578T [5]; [10]): > 100 µM | TGI (Hs-578T [5]; read-out: pTGI (converted)): > 100 µM | growth at 100 µM (SF-295): -38% | IC50 (A549 [6]): 2.62 µM | GI50 (A549 [6]; read-out: GI50): 2.52 µM | CC50 (A549 [6]; [9]): > 100 µM | TGI (A549 [6]; read-out: TGI): > 100 µM | GI50 (A549 [6]; read-out: pGI50 (converted)): 2.63 µM | CC50 (A549 [6]; [10]): > 100 µM | TGI (A549 [6]; read-out: pTGI (converted)): > 100 µM | GI50 (DU-145 [7]; read-out: GI50): 5.1 µM | CC50 (DU-145 [7]; [9]): > 100 µM | TGI (DU-145 [7]; read-out: TGI): > 100 µM | GI50 (DU-145 [7]; read-out: pGI50 (converted)): 5.25 µM | CC50 (DU-145 [7]; [10]): > 100 µM | TGI (DU-145 [7]; read-out: pTGI (converted)): > 100 µM | growth at 100 µM (MDA-MB-231): -84% | GI50 (HCC 2998; read-out: GI50): 3.12 µM | CC50 (HCC 2998; [9]): > 100 µM | TGI (HCC 2998; read-out: TGI): 11.6 µM | GI50 (HCC 2998; read-out: pGI50 (converted)): 3.09 µM | CC50 (HCC 2998; [10]): > 100 µM | TGI (HCC 2998; read-out: pTGI (converted)): 11.7 µM | IC50 (PC-3 [8]): 2.28 µM | GI50 (PC-3 [8]; read-out: GI50): 2.28 µM | CC50 (PC-3 [8]; [9]): > 100 µM | TGI (PC-3 [8]; read-out: TGI): 22.5 µM | GI50 (PC-3 [8]; read-out: pGI50 (converted)): 2.29 µM | CC50 (PC-3 [8]; [10]): > 100 µM | TGI (PC-3 [8]; read-out: pTGI (converted)): 28.2 µM | GI50 (MOLT-4; read-out: GI50): 2.38 µM | CC50 (MOLT-4; [9]): > 100 µM | TGI (MOLT-4; read-out: TGI): > 100 µM | GI50 (MOLT-4; read-out: pGI50 (converted)): 2.4 µM | CC50 (MOLT-4; [10]): > 100 µM | TGI (MOLT-4; read-out: pTGI (converted)): > 100 µM | growth at 100 µM (ACHN): 19% | growth at 100 µM (OVCAR-4): 15% | growth at 0.01 µM (NCI-H522): 93% | growth at 0.1 µM (OVCAR-3): 102% | growth at 1 µM (RXF 393): 78% | growth at 100 µM (SW-620): 13% | growth at 1 µM (MCF7): 54%
